According to a melting point compilation (Tetko et al.; mined from patent text by program, amines drawn as free bases though some values may be those of a salt):

| melting point [°C] | Structure (SMILES) |
| --- | --- |
| 187 to 189 | O=C(Nc1ccc(-n2nc(C(F)(F)F)cc2C(F)(F)F)cc1)c1c(F)ccc([N+](=O)[O-])c1F |
| 156 | Cc1noc(C)c1NC(=O)c1ccc(OC(F)F)c2oc(C3CCOC3)cc12 (centres undefined) |
| 162 to 164 | NS(=O)(=O)c1ccc2c(c1)C(=NO)CCC2 |
| 163 to 164 | O=S(=O)(c1ccc(Br)cc1)N1CCC(CN2CCC(c3ccncc3)CC2)CC1 |
| 209 | CCOC(=O)C1=C(N)NC2=C(C(=O)CCC2)C1c1ccccc1N=[N+]=[N-] (centres undefined) |
| 95 to 100 | Cc1ncccc1Oc1ccc(N)cn1 |
| 137 to 138 | O=C1C(=Cc2cccs2)CCc2cc(OCCn3ccnc3)ccc21 |
| 48.5 to 49.5 | CCCCN(CCCC)c1nc(-c2ccc(C(C)(C)C)cc2)cs1 |
| 265 to 267 | CC(=O)Nc1ncc(Sc2ccc(O)cc2)s1 |
| 129 to 131 | Fc1ccccc1-n1c(CN2CCOCC2)nnc1-c1ccc(-c2ccccc2)cc1 |
| 166 to 167 | CCC(CC)n1nnc2c(Nc3c(Br)cc(OC)cc3OC)nc(C)cc21 |
| 273 to 275 | O=c1oc2c(c(O)c1Sc1ccc(Cl)cc1)c(=O)n(Cc1ccccc1)c1ccccc21 |
| 172 to 173 | Cc1c(NC(=O)c2ccc(-c3ccc(F)cc3F)cc2F)ccc2cc(CN3CCCC3)cnc12 |
| 162 to 164 | Clc1cccc(Cl)c1C1CCN(Cc2[nH]c3ccccc3c2-c2ccccc2)CC1 |
| 73 to 74 | CCOC(=O)C=Cc1ccc(CCc2nc(-c3ccccc3)oc2C)cc1 |
| 97 to 100 | CC(=O)c1ccc2c(C(=O)c3ccc(OCCN4CCCCC4)cc3)c(-c3ccc(O)cc3)sc2c1 |
| 154 to 155 | Cc1nc2c(NC(=O)OCCc3ccc([N+](=O)[O-])cc3)nc(=O)n(C3CC(O)C(CO)O3)c2nc1C (centres undefined) |
| < 50 | CCSCCn1c(=N)sc2cc(OC(F)(F)C(F)(F)F)ccc21 |
| 191 to 194 | CCCC(=O)c1sc(NC(=O)c2ccncc2)nc1-c1ccco1 |
| 216 to 220 | Cc1c(-c2ccc(C(C)C)cc2)oc2c(C(=O)O)cccc2c1=O |
| 174 to 176 | O=C(NCc1ccc(Cl)cc1)c1cn(C2CC2)c2oc(CCl)cc2c1=O |

| melting point [°C] | Structure (SMILES) |
| --- | --- |
| 144 to 146 | COc1ccc(S(=O)(=O)C2CC(=O)NC2=O)cc1 (centres undefined) |
| 128 to 131 | COc1cccc2c1Cc1ccccc1C2(CCOS(C)(=O)=O)CCOS(C)(=O)=O |
| 132 to 133 | COc1ccnc(CCc2nc3cc(-c4cccs4)cnc3[nH]2)c1 |
| 50 to 52 | CCCc1c(OCCCOc2cc(O)c(-c3ccc(F)cc3)cc2CC)cccc1C(=O)c1ccccc1C(=O)O |
| 186 to 188 | CC(C)[C@H](NC(=O)OCc1ccccc1)C(=O)N[C@@H](Cc1ccccc1)C(=O)C[C@@H]1CCCC[C@H]1C(=O)NC(C)(C)C |
| 105 to 107 | Cc1ncn(-c2ccc([N+](=O)[O-])cc2F)n1 |
| 116 to 118 | CCc1[nH]c(=S)n(Nc2cccc(Cl)c2)c1-c1ccccc1 |
| > 260 | Cc1ccc(Oc2ccc(C(=N)NN)cc2)c(O)c1 |
| 232 to 234 | O=C1Nc2cccc(F)c2C(=O)N2CC[C@@H]12 |
| 202 to 205 | CC(=O)Nc1nonc1-c1nc2ccccc2n1CC(=O)c1ccc(Cl)cc1 |
| 168 | CCNc1cncc(C(=NCCc2ccccc2Cl)NC#N)c1 |
| 270 | O=C1c2ccc(O)cc2C(=O)N1c1cccc(O)c1 |
| 115 to 116 | O=Cc1ccc(CBr)c2ccccc12 |
| 255 to 256 | NC(=O)c1cc([N+](=O)[O-])c(Oc2ccccc2)c(S(N)(=O)=O)c1 |
| 226 to 228 | CC(C)(O)c1ccc(-c2cnc3[nH]c(=O)n(CC4CCCCC4)c3n2)cc1 |
| 184 to 186 | CC(=O)C1=C(O)C(=C(C)Nc2ccccc2)C(=O)OC1=O |
| 248 to 250 | O=C(NCc1cc[nH]c(=O)c1)c1nc2ccc(F)c(OCc3ccc(F)cc3)c2c(=O)[nH]1 |
| 228 to 230 | O=C(COc1ccc(CCNS(=O)(=O)c2ccc(Cl)cc2)cc1)Nc1nnn[nH]1 |
| 106 to 107 | CC(=O)C=Cc1ccc(OCc2ccccc2)cc1 |
| 190 to 196 | C=C1CCc2c(N3CCC(O)C3)c(F)cc3c(=O)c(C(=O)O)cn1c23 (centres undefined) |
| 76 to 79 | CCOC(=O)C(CCCc1ccccc1CP(=O)(OCC)OCC)(NC(C)=O)C(=O)OCC |

| melting point [°C] | Structure (SMILES) |
| --- | --- |
| 164 to 165 | O=c1oc(-c2snnc2C2CC2)nc2ccccc12 |
| 218 to 219 | Cc1nnc(-c2ccc3occ(-c4ccc(S(C)(=O)=O)c(OC(F)(F)F)c4)c3c2)o1 |
| 232 to 234 | COc1cccc(Nc2c(N)cc(C(=O)O)cc2S(N)(=O)=O)c1 |
| 129 to 130 | CCCc1c(OCCCOc2ccc(C(=O)C(=O)O)cc2)ccc(C(C)=O)c1O |
| 201 to 205 | CNCc1ccc(C2CCN(c3c(F)c(N)c4c(=O)c(C(=O)O)cn(C5CC5)c4c3F)C2)cc1 (centres undefined) |
| 168 to 170 | O=C1CCC(N2Cc3c(OCc4cc(CN5CCOCC5)co4)cccc3C2=O)C(=O)N1 (centres undefined) |
| 340 to 342 | COc1cccc(NC(=O)NCc2cccc3c2CN(C2CCC(=O)NC2=O)C3=O)c1 (centres undefined) |
| 112 to 113 | CCN(CCCCCCCCN(CC)S(=O)(=O)c1ccc(C)cc1)S(=O)(=O)c1ccc(C)cc1 |
| 305 to 307 | CC1(C)C(c2ccncc2)=Nc2ccc(-c3ccc(=O)[nH]n3)cc21 |
| 74 to 75 | Oc1cccc(CCCn2ccnn2)c1 |
| 131 to 132 | CCOC(=O)C1=CNC(COCCN)=C(C(=O)OC)C1c1cccc(Cl)c1Cl (centres undefined) |
| 74 to 81 | CCOCCn1c(N2CCCN(CCC3(c4ccc(Cl)cc4)CCN(C(=O)c4cc(OC)c(OC)c(OC)c4)C3)CC2)nc2ccccc21 (centres undefined) |
| 73 to 76.5 | COC(=O)C(C)Oc1ccc(NC(=O)CCCCCOCc2ccccc2)cc1 (centres undefined) |
| 144 to 145 | COc1cc2c(cc1CCNC(=O)c1cc(OC)c(OC)c(OC)c1)CCC2 |
| 177 to 198 | NC(=O)c1ccc(N)c(C(N)=O)c1 |
| 143 to 144 | Cc1c(C)c2ccc(OCCCN3CCN(Cc4ccc(Cl)cc4)CC3)cc2[nH]c1=O |
| 319 to 322 | NC(=O)CCn1c2ccc(O)cc2c2c3c(c(-c4ccccc4Cl)cc21)C(=O)NC3=O |
| 237 to 239 | CCc1cccc(Sc2ccccc2)c1NC(=O)CC1c2ccccc2Oc2ccccc21 |
| 115 to 116 | CC(=O)c1cc(S(=O)(=O)N(C)C)ccc1O |
| 141 to 142 | Cn1c(CO)nc2cc(Cl)cnc21 |
| 164 to 166 | O=C1NC(=O)C(Cc2ccc(OCCON=Cc3ccc4ccccc4n3)cc2)S1 (centres undefined) |

| Structure (SMILES) | melting point [°C] |
| --- | --- |
| CC(=O)OC1CC2(C)C(=O)CCC2C2C(C)CC3=CC(=O)CCC3C12 (centres undefined) | 183 |
| CC(Cc1ccc(OC(C)C)cc1)NCC(O)c1cccc(Cl)c1 (centres undefined) | 58 to 61 |
| Cc1cc([N+](=O)[O-])cc(C(=O)NC(C)C)c1NC(=O)c1cc(C(F)(F)F)nn1-c1ncccc1Cl | 170 to 172 |
| CC(=O)C=Cc1ccc2c(c1)OCO2 | 108 to 109 |
| COC(=O)c1ccc(CC(C)NCC(O)c2ccc(O)c(CO)c2)cc1C(=O)OC (centres undefined) | 124 to 129 |
| CCCn1nc(C(N)=O)cc1CC | 105 to 106 |
